US20250114460A1, “NOVEL PLK1 DEGRADATION INDUCING COMPOUND” (UPPTHERA, INC., priority 2021, published 2025)
Read-outs that look alike come from different tables or passages of the source.

Tests used:
Type in all cases: cell-based
PLK1 = target: T1, PLK1 (Homo sapiens, UniProt P53350); assay: Luciferase assay for PLK1 in HeLa LgBit (Plk1-HiBit KI) cell line; details: 300 nM compound, luminescence after 9 hours
T1 construct: endogenous in cells; host or cells: HeLa LgBit (Plk1-HiBit KI): HeLa stably expressing LgBit, with a CRISPR/Cas9 knock-in of HiBit at the endogenous PLK1 locus
Outline: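 Luminescence, followed in real time after adding compound at 300 nM and Endurazine substrate, is reported relative to DMSO-treated wells. Cells are a HeLa LgBit line with a Plk1-HiBit knock-in, synchronized by 2 mM thymidine for 24 h, released, and cultured 18 h before treatment.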

NCI-H526 cell line = assay: Cell viability assay for H526 cell (EZ-Cytox); details: Homo sapiens, NCI-H526, 120 h; H526 cells, 5 days, 3000 nM to 0.46 nM
Outline: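 Read-out was EZ-Cytox colorimetric absorbance at 450 nm, taken after brief plate shaking, with IC50 derived. Before reading, H526 cells had been cultured with test compound for 5 days.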

MRC-5 cell line = assay: Cell viability assay for MRC-5 cell line (EZ-Cytox); details: Homo sapiens, MRC5, 120 h, read-out: Activity: IC50 value of Exemplary Compound to MRC-5 cell line
Protocol: 4. Cell Viability Assay for MRC-5 Cell Line
(1) Culture of MRC-5 Cell Line
Passage of cultured cells was maintained within P15.
(2) Treatment of Compounds of the Present Invention
Then, it was cultured in 37° C.
(3) Cytotoxicity Experiment
CO2 incubator for 4 hours.

[1] = MRC-5 normal cell line, 5 days, 10000 nM to 1.52 nM, N.D. = no cytotoxicity until 10 μM

T1 sequence (P53350 whole entry): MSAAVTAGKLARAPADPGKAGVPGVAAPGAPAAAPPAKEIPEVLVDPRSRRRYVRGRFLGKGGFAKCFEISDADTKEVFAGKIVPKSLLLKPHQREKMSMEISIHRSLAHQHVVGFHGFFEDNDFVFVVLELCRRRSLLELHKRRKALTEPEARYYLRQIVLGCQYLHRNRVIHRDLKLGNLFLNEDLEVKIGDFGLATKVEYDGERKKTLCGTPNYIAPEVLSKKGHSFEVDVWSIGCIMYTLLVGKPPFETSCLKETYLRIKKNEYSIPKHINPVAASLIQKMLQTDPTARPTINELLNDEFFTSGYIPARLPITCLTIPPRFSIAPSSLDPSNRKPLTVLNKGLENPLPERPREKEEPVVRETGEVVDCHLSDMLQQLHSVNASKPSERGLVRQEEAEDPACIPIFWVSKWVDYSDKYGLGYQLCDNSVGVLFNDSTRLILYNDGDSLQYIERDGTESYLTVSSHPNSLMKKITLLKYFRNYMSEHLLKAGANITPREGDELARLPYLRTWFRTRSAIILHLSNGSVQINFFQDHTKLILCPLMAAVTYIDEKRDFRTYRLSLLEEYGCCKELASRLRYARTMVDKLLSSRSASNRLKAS

SMILES | Activity: ratio of the luminescense value of each Exemplary Compound treatment group to DMSO treatment group (PLK1) | IC50 (NCI-H526 cell line) [µM] | IC50 (MRC-5 cell line) [µM] | IC50 (MRC-5 cell line; [1]) [µM]
COc1cc(C(=O)NC2CCCN(CCN3CCN(c4cccc5c4C(=O)N(C4CCC(=O)NC4=O)C5=O)CC3)C2)ccc1Nc1ncc2c(n1)N(C1CCCC1)CC(F)(F)C(=O)N2C (stereo not drawn) [Compound 143, 4-((9-cyclopentyl-7,7-difluoro-5-methyl-6-oxo-6,7,8,9-tetrahydro-5H-pyrimido[4,5-b][1,4]diazepin-2-yl)amino)-N-(1-(2-(4-(2-(2,6-dioxopiperidin-3-yl)-1,3-dioxoisoindolin-4-yl)piperazin-1-yl)ethyl)piperidin-3-yl)-3-methoxybenzamide] | ++ (++<0.6) | < 0.1 | > 10 | 
COc1cc(C(=O)NC2CCCN(CCCN3CCN(c4cccc5c4C(=O)N(C4CCC(=O)NC4=O)C5=O)CC3)C2)ccc1Nc1ncc2c(n1)N(C1CCCC1)CC(F)(F)C(=O)N2C (stereo not drawn) [Compound 144, 4-((9-cyclopentyl-7,7-difluoro-5-methyl-6-oxo-6,7,8,9-tetrahydro-5H-pyrimido[4,5-b][1,4]diazepin-2-yl)amino)-N-(1-(3-(4-(2-(2,6-dioxopiperidin-3-yl)-1,3-dioxoisoindolin-4-yl)piperazin-1-yl)propyl)piperidin-3-yl)-3-methoxybenzamide] | ++ (++<0.6) | < 0.05 | 4.08 | 
COc1cc(C(=O)NN2CCC(CN3CCN(c4ccc5c(c4)C(=O)N(C4CCC(=O)NC4=O)C5=O)CC3)CC2)ccc1Nc1ncc2c(n1)N(C1CCCC1)CC(F)(F)C(=O)N2C (stereo not drawn) [Compound 148, 4-((9-cyclopentyl-7,7-difluoro-5-methyl-6-oxo-6,7,8,9-tetrahydro-5H-pyrimido[4,5-b][1,4]diazepin-2-yl)amino)-N-(4-((4-(2-(2,6-dioxopiperidin-3-yl)-1,3-dioxoisoindolin-5-yl)piperazin-1-yl)methyl)piperidin-1-yl)-3-methoxybenzamide] | ++ (++<0.6) | < 0.05 |  | 13.2
COc1cc(C(=O)NN2CCC(CCN3CCN(c4ccc5c(c4)C(=O)N(C4CCC(=O)NC4=O)C5=O)CC3)C2)ccc1Nc1ncc2c(n1)N(C1CCCC1)CC(F)(F)C(=O)N2C (stereo not drawn) [Compound 149, 4-((9-cyclopentyl-7,7-difluoro-5-methyl-6-oxo-6,7,8,9-tetrahydro-5H-pyrimido[4,5-b][1,4]diazepin-2-yl)amino)-N-(3-(2-(4-(2-(2,6-dioxopiperidin-3-yl)-1,3-dioxoisoindolin-5-yl)piperazin-1-yl)ethyl)pyrrolidin-1-yl)-3-methoxybenzamide] | ++ (++<0.6) | < 0.05 |  | > 10
COc1cc(C(=O)N[C@H]2CC[C@H](N3CCN(c4ccc5c(c4)C(=O)N(C4CCC(=O)NC4=O)C5=O)CC3)CC2)ccc1Nc1ncc2c(n1)N(C(C)C)CC(F)(F)C(=O)N2C (stereo partly drawn) [Compound 150, 4-((7,7-difluoro-9-isopropyl-5-methyl-6-oxo-6,7,8,9-tetrahydro-5H-pyrimido[4,5-b][1,4]diazepin-2-yl)amino)-N-((1r,4r)-4-(4-(2-(2,6-dioxopiperidin-3-yl)-1,3-dioxoisoindolin-5-yl)piperazin-1-yl)cyclohexyl)-3-methoxybenzamide] | ++ (++<0.6) | < 0.05 |  | 19.3
COc1cc(C(=O)NN2CCC(CCN3CCN(c4cccc5c4C(=O)N(C4CCC(=O)NC4=O)C5=O)CC3)C2)ccc1Nc1ncc2c(n1)N(C1CCCC1)CC(F)(F)C(=O)N2C (stereo not drawn) [Compound 151, 4-((9-cyclopentyl-7,7-difluoro-5-methyl-6-oxo-6,7,8,9-tetrahydro-5H-pyrimido[4,5-b][1,4]diazepin-2-yl)amino)-N-(3-(2-(4-(2-(2,6-dioxopiperidin-3-yl)-1,3-dioxoisoindolin-4-yl)piperazin-1-yl)ethyl)pyrrolidin-1-yl)-3-methoxybenzamide] | ++ (++<0.6) | < 0.05 |  | > 10
COc1cc(C(=O)N[C@H]2CC[C@H](N(C)CC3CCN(c4cccc5c4C(=O)N(C4CCC(=O)NC4=O)C5=O)CC3)CC2)ccc1Nc1ncc2c(n1)N(C(C)C)CC(F)(F)C(=O)N2C (stereo partly drawn) [Compound 152, 4-((7,7-difluoro-9-isopropyl-5-methyl-6-oxo-6,7,8,9-tetrahydro-5H-pyrimido[4,5-b][1,4]diazepin-2-yl)amino)-N-((1r,4r)-4-(((1-(2-(2,6-dioxopiperidin-3-yl)-1,3-dioxoisoindolin-4-yl)piperidin-4-yl)methyl)(methyl)amino)cyclohexyl)-3-methoxybenzamide] | ++ (++<0.6) | < 0.05 |  | 6.17
COc1cc(C(=O)N[C@H]2CC[C@H](N(C)CC3CCN(c4ccc5c(c4)C(=O)N(C4CCC(=O)NC4=O)C5=O)CC3)CC2)ccc1Nc1ncc2c(n1)N(C(C)C)CC(F)(F)C(=O)N2C (stereo partly drawn) [Compound 153, 4-((7,7-difluoro-9-isopropyl-5-methyl-6-oxo-6,7,8,9-tetrahydro-5H-pyrimido[4,5-b][1,4]diazepin-2-yl)amino)-N-((1r,4r)-4-(((1-(2-(2,6-dioxopiperidin-3-yl)-1,3-dioxoisoindolin-5-yl)piperidin-4-yl)methyl)(methyl)amino)cyclohexyl)-3-methoxybenzamide] | ++ (++<0.6) | < 0.05 |  | 15.8
COc1cc(C(=O)NN2CCC(N3CCN(c4ccc5c(c4)C(=O)N(C4CCC(=O)NC4=O)C5=O)CC3)C2)ccc1Nc1ncc2c(n1)N(C(C)C)CC(F)(F)C(=O)N2C (stereo not drawn) [Compound 154, 4-((7,7-difluoro-9-isopropyl-5-methyl-6-oxo-6,7,8,9-tetrahydro-5H-pyrimido[4,5-b][1,4]diazepin-2-yl)amino)-N-(3-(4-(2-(2,6-dioxopiperidin-3-yl)-1,3-dioxoisoindolin-5-yl)piperazin-1-yl)pyrrolidin-1-yl)-3-methoxybenzamide] | ++ (++<0.6) | < 0.1 |  | > 10
COc1cc(C(=O)NN2CCC(N3CCN(c4cccc5c4C(=O)N(C4CCC(=O)NC4=O)C5=O)CC3)C2)ccc1Nc1ncc2c(n1)N(C(C)C)CC(F)(F)C(=O)N2C (stereo not drawn) [Compound 155, 4-((7,7-difluoro-9-isopropyl-5-methyl-6-oxo-6,7,8,9-tetrahydro-5H-pyrimido[4,5-b][1,4]diazepin-2-yl)amino)-N-(3-(4-(2-(2,6-dioxopiperidin-3-yl)-1,3-dioxoisoindolin-4-yl)piperazin-1-yl)pyrrolidin-1-yl)-3-methoxybenzamide] | + (+<0.7) | < 0.1 |  | > 10
COc1cc(C(=O)N[C@H]2CC[C@H](N(C)CCN3CCN(c4ccc5c(c4)C(=O)N(C4CCC(=O)NC4=O)C5=O)CC3)CC2)ccc1Nc1ncc2c(n1)N(C(C)C)CC(F)(F)C(=O)N2C (stereo partly drawn) [Compound 156, 4-((7,7-difluoro-9-isopropyl-5-methyl-6-oxo-6,7,8,9-tetrahydro-5H-pyrimido[4,5-b][1,4]diazepin-2-yl)amino)-N-((1r,4r)-4-((2-(4-(2-(2,6-dioxopiperidin-3-yl)-1,3-dioxoisoindolin-5-yl)piperazin-1-yl)ethyl)(methyl)amino)cyclohexyl)-3-methoxybenzamide] | ++ (++<0.6) | < 0.05 |  | > 10
COc1cc(C(=O)NN2CCC(CN3CCN(c4cccc5c4C(=O)N(C4CCC(=O)NC4=O)C5=O)CC3)C(F)(F)C2)ccc1Nc1ncc2c(n1)N(C(C)C)CC(F)(F)C(=O)N2C (stereo not drawn) [Compound 157, 4-((7,7-difluoro-9-isopropyl-5-methyl-6-oxo-6,7,8,9-tetrahydro-5H-pyrimido[4,5-b][1,4]diazepin-2-yl)amino)-N-(4-((4-(2-(2,6-dioxopiperidin-3-yl)-1,3-dioxoisoindolin-4-yl)piperazin-1-yl)methyl)-3,3-difluoropiperidin-1-yl)-3-methoxybenzamide] | ++ (++<0.6) | < 0.1 |  | > 10
COc1cc(C(=O)NN2CCC(CN3CCN(c4cccc5c4CN(C4CCC(=O)NC4=O)C5=O)CC3)C(F)(F)C2)ccc1Nc1ncc2c(n1)N(C(C)C)CC(F)(F)C(=O)N2C (stereo not drawn) [Compound 158, 4-((7,7-difluoro-9-isopropyl-5-methyl-6-oxo-6,7,8,9-tetrahydro-5H-pyrimido[4,5-b][1,4]diazepin-2-yl)amino)-N-(4-((4-(2-(2,6-dioxopiperidin-3-yl)-1-oxoisoindolin-4-yl)piperazin-1-yl)methyl)-3,3-difluoropiperidin-1-yl)-3-methoxybenzamide] | +++ (+++: <0.3) | < 0.05 |  | 39.3
